Columns and labels:
[1] = The drug is tested on Z-017 corresponding to mouse gut metagenome with ENA study accession number: PRJEB37062 and ENA sample accession number: ERS12561816 for biotransformation under anaerobic condition. The drug concentrations were measured over 9 timepoints collected between 0 and 24 hours of incubation by liquid-chromatography-coupled mass spectrometry (LC–MS); conditions: 2 µM
[2] = The drug is tested on Z-009 corresponding to pig gut metagenome with ENA study accession number: PRJEB37062 and ENA sample accession number: ERS12561809 for biotransformation under anaerobic condition. The drug concentrations were measured over 9 timepoints collected between 0 and 24 hours of incubation by liquid-chromatography-coupled mass spectrometry (LC–MS); conditions: 2 µM
[3] = The drug is tested on WLS-220 corresponding to human gut metagenome with ENA study accession number: PRJEB37062 and ENA sample accession number: ERS12561769 for biotransformation under anaerobic condition. The drug concentrations were measured over 9 timepoints collected between 0 and 24 hours of incubation by liquid-chromatography-coupled mass spectrometry (LC–MS); conditions: 2 µM
[4] = human gut metagenome, 24 h, 2 µM
[5] = human gut metagenome, 24 h, 2 µM; remark: listed apart in the source
[6] = The drug is tested on Z-011 corresponding to mouse gut metagenome with ENA study accession number: PRJEB37062 and ENA sample accession number: ERS12561811 for biotransformation under anaerobic condition. The drug concentrations were measured over 9 timepoints collected between 0 and 24 hours of incubation by liquid-chromatography-coupled mass spectrometry (LC–MS); conditions: 2 µM
[7] = The drug is tested on Z-023 corresponding to metagenome with ENA study accession number: PRJEB37062 and ENA sample accession number: ERS12561822 for biotransformation under anaerobic condition. The drug concentrations were measured over 9 timepoints collected between 0 and 24 hours of incubation by liquid-chromatography-coupled mass spectrometry (LC–MS); conditions: 2 µM
[8] = human gut metagenome, 24 h, 2 µM; remark: listed apart in the source
[9] = human gut metagenome, 24 h, 2 µM; remark: listed apart in the source
[10] = human gut metagenome, 24 h, 2 µM; remark: listed apart in the source
[11] = The drug is tested on Z-013 corresponding to rabbit gut metagenome with ENA study accession number: PRJEB37062 and ENA sample accession number: ERS12561813 for biotransformation under anaerobic condition. The drug concentrations were measured over 9 timepoints collected between 0 and 24 hours of incubation by liquid-chromatography-coupled mass spectrometry (LC–MS); conditions: 2 µM
[12] = The drug is tested on Z-025 corresponding to rabbit gut metagenome with ENA study accession number: PRJEB37062 and ENA sample accession number: ERS12561824 for biotransformation under anaerobic condition. The drug concentrations were measured over 9 timepoints collected between 0 and 24 hours of incubation by liquid-chromatography-coupled mass spectrometry (LC–MS); conditions: 2 µM
[13] = The drug is tested on WLS-240 corresponding to human gut metagenome with ENA study accession number: PRJEB37062 and ENA sample accession number: ERS12561773 for biotransformation under anaerobic condition. The drug concentrations were measured over 9 timepoints collected between 0 and 24 hours of incubation by liquid-chromatography-coupled mass spectrometry (LC–MS); conditions: 2 µM
[14] = The drug is tested on WLS-090 corresponding to human gut metagenome with ENA study accession number: PRJEB37062 and ENA sample accession number: ERS12561753 for biotransformation under anaerobic condition. The drug concentrations were measured over 9 timepoints collected between 0 and 24 hours of incubation by liquid-chromatography-coupled mass spectrometry (LC–MS); conditions: 2 µM
[15] = The drug is tested on Z-003 corresponding to pig gut metagenome with ENA study accession number: PRJEB37062 and ENA sample accession number: ERS12561803 for biotransformation under anaerobic condition. The drug concentrations were measured over 9 timepoints collected between 0 and 24 hours of incubation by liquid-chromatography-coupled mass spectrometry (LC–MS); conditions: 2 µM
[16] = The drug is tested on Z-010 corresponding to metagenome with ENA study accession number: PRJEB37062 and ENA sample accession number: ERS12561810 for biotransformation under anaerobic condition. The drug concentrations were measured over 9 timepoints collected between 0 and 24 hours of incubation by liquid-chromatography-coupled mass spectrometry (LC–MS); conditions: 2 µM
[17] = The drug is tested on Z-030 corresponding to mouse gut metagenome with ENA study accession number: PRJEB37062 and ENA sample accession number: ERS12561829 for biotransformation under anaerobic condition. The drug concentrations were measured over 9 timepoints collected between 0 and 24 hours of incubation by liquid-chromatography-coupled mass spectrometry (LC–MS); conditions: 2 µM
[18] = human gut metagenome, 24 h, 2 µM; remark: listed apart in the source
[19] = human gut metagenome, 24 h, 2 µM; remark: listed apart in the source
[20] = human gut metagenome, 24 h, 2 µM; remark: listed apart in the source
Further: call rule not given here.

CN[C@H]1CC[C@@H](c2ccc(Cl)c(Cl)c2)c2ccccc21 [SERTRALINE]
Bacterial Biotransformation [1]: Compound metabolized | Bacterial Biotransformation [2]: Compound metabolized | Bacterial Biotransformation [3]: Compound metabolized | Bacterial Biotransformation [4]: Compound NOT metabolized | Bacterial Biotransformation [5]: Compound NOT metabolized | Bacterial Biotransformation [6]: Compound metabolized | Bacterial Biotransformation [7]: Compound metabolized | Bacterial Biotransformation [8]: Compound metabolized | Bacterial Biotransformation [9]: Compound NOT metabolized | Bacterial Biotransformation [10]: Compound NOT metabolized | Bacterial Biotransformation [11]: Compound NOT metabolized | Bacterial Biotransformation [12]: Compound metabolized | Bacterial Biotransformation [13]: Compound NOT metabolized | Bacterial Biotransformation [14]: Compound metabolized | Bacterial Biotransformation [15]: Compound metabolized | Bacterial Biotransformation [16]: Compound metabolized | Bacterial Biotransformation [17]: Compound NOT metabolized | Bacterial Biotransformation [18]: Compound NOT metabolized | Bacterial Biotransformation [19]: Compound NOT metabolized | Bacterial Biotransformation [20]: Compound metabolized

O=C(O)CCC(=O)O.O=C(O[C@H]1CN2CCC1CC2)N1CCc2ccccc2[C@@H]1c1ccccc1 [SOLIFENACIN SUCCINATE]
Bacterial Biotransformation [1]: Compound NOT metabolized | Bacterial Biotransformation [2]: Compound metabolized | Bacterial Biotransformation [3]: Compound NOT metabolized | Bacterial Biotransformation [4]: Compound NOT metabolized | Bacterial Biotransformation [5]: Compound NOT metabolized | Bacterial Biotransformation [6]: Compound NOT metabolized | Bacterial Biotransformation [7]: Compound metabolized | Bacterial Biotransformation [8]: Compound metabolized | Bacterial Biotransformation [9]: Compound metabolized | Bacterial Biotransformation [10]: Compound NOT metabolized | Bacterial Biotransformation [11]: Compound NOT metabolized | Bacterial Biotransformation [12]: Compound metabolized | Bacterial Biotransformation [13]: Compound metabolized | Bacterial Biotransformation [14]: Compound metabolized | Bacterial Biotransformation [15]: Compound metabolized | Bacterial Biotransformation [16]: Compound metabolized | Bacterial Biotransformation [17]: Compound NOT metabolized | Bacterial Biotransformation [18]: Compound NOT metabolized | Bacterial Biotransformation [19]: Compound NOT metabolized | Bacterial Biotransformation [20]: Compound metabolized

O=C(CCCN1CCC2(CC1)C(=O)NCN2c1ccccc1)c1ccc(F)cc1 [SPIPERONE]
Bacterial Biotransformation [1]: Compound NOT metabolized | Bacterial Biotransformation [2]: Compound metabolized | Bacterial Biotransformation [3]: Compound metabolized | Bacterial Biotransformation [4]: Compound NOT metabolized | Bacterial Biotransformation [5]: Compound metabolized | Bacterial Biotransformation [6]: Compound NOT metabolized | Bacterial Biotransformation [7]: Compound metabolized | Bacterial Biotransformation [8]: Compound NOT metabolized | Bacterial Biotransformation [9]: Compound NOT metabolized | Bacterial Biotransformation [10]: Compound NOT metabolized | Bacterial Biotransformation [11]: Compound NOT metabolized | Bacterial Biotransformation [12]: Compound NOT metabolized | Bacterial Biotransformation [13]: Compound NOT metabolized | Bacterial Biotransformation [14]: Compound NOT metabolized | Bacterial Biotransformation [15]: Compound NOT metabolized | Bacterial Biotransformation [16]: Compound metabolized | Bacterial Biotransformation [17]: Compound NOT metabolized | Bacterial Biotransformation [18]: Compound NOT metabolized | Bacterial Biotransformation [19]: Compound NOT metabolized | Bacterial Biotransformation [20]: Compound NOT metabolized

CCOc1ccccc1OCCN[C@H](C)Cc1ccc(OC)c(S(N)(=O)=O)c1.Cl [TAMSULOSIN HYDROCHLORIDE]
Bacterial Biotransformation [1]: Compound NOT metabolized | Bacterial Biotransformation [2]: Compound NOT metabolized | Bacterial Biotransformation [3]: Compound NOT metabolized | Bacterial Biotransformation [4]: Compound NOT metabolized | Bacterial Biotransformation [5]: Compound NOT metabolized | Bacterial Biotransformation [6]: Compound NOT metabolized | Bacterial Biotransformation [7]: Compound metabolized | Bacterial Biotransformation [8]: Compound NOT metabolized | Bacterial Biotransformation [9]: Compound NOT metabolized | Bacterial Biotransformation [10]: Compound NOT metabolized | Bacterial Biotransformation [11]: Compound NOT metabolized | Bacterial Biotransformation [12]: Compound NOT metabolized | Bacterial Biotransformation [13]: Compound NOT metabolized | Bacterial Biotransformation [14]: Compound metabolized | Bacterial Biotransformation [15]: Compound metabolized | Bacterial Biotransformation [16]: Compound NOT metabolized | Bacterial Biotransformation [17]: Compound NOT metabolized | Bacterial Biotransformation [18]: Compound NOT metabolized | Bacterial Biotransformation [19]: Compound NOT metabolized | Bacterial Biotransformation [20]: Compound NOT metabolized

COc1cc2nc(N3CCN(C(=O)C4CCCO4)CC3)nc(N)c2cc1OC (stereo not given) [TERAZOSIN]
Bacterial Biotransformation [1]: Compound NOT metabolized | Bacterial Biotransformation [2]: Compound metabolized | Bacterial Biotransformation [3]: Compound metabolized | Bacterial Biotransformation [4]: Compound metabolized | Bacterial Biotransformation [5]: Compound metabolized | Bacterial Biotransformation [6]: Compound metabolized | Bacterial Biotransformation [7]: Compound NOT metabolized | Bacterial Biotransformation [8]: Compound NOT metabolized | Bacterial Biotransformation [9]: Compound NOT metabolized | Bacterial Biotransformation [10]: Compound NOT metabolized | Bacterial Biotransformation [11]: Compound NOT metabolized | Bacterial Biotransformation [12]: Compound NOT metabolized | Bacterial Biotransformation [13]: Compound metabolized | Bacterial Biotransformation [14]: Compound metabolized | Bacterial Biotransformation [15]: Compound NOT metabolized | Bacterial Biotransformation [16]: Compound metabolized | Bacterial Biotransformation [17]: Compound NOT metabolized | Bacterial Biotransformation [18]: Compound NOT metabolized | Bacterial Biotransformation [19]: Compound NOT metabolized | Bacterial Biotransformation [20]: Compound metabolized

From ChEMBL document CHEMBL5724914, “Linking interpersonal differences in gut microbiota composition and drug biotransformation activity” (2024)
